Laboratory results reported in US20170066759A1, “AROMATIC 5-MEMBERED HETEROCYCLIC DERIVATIVE HAVING TRPV4-INHIBITING ACTIVITY” (Shionogi & Co., Ltd., priority 2012, published 2017).

Target: T1, human TRPV4 (hTRPV4/CHO cells) (Homo sapiens, UniProt Q9HBA0)
T1 construct: expressed in transfected cells; host or cells: CHO-K1
Test: Test Example 1: TRPV4 inhibitory activity (IC50 value), 4α-PDD stimulation, Fluo4 calcium fluorescence (FLIPR TETRA)
Assay type: cell-based
Settings: Test Example 1, 4α-PDD stimulation, read-out: Test 1 IC50

T1 sequence (Q9HBA0 whole entry): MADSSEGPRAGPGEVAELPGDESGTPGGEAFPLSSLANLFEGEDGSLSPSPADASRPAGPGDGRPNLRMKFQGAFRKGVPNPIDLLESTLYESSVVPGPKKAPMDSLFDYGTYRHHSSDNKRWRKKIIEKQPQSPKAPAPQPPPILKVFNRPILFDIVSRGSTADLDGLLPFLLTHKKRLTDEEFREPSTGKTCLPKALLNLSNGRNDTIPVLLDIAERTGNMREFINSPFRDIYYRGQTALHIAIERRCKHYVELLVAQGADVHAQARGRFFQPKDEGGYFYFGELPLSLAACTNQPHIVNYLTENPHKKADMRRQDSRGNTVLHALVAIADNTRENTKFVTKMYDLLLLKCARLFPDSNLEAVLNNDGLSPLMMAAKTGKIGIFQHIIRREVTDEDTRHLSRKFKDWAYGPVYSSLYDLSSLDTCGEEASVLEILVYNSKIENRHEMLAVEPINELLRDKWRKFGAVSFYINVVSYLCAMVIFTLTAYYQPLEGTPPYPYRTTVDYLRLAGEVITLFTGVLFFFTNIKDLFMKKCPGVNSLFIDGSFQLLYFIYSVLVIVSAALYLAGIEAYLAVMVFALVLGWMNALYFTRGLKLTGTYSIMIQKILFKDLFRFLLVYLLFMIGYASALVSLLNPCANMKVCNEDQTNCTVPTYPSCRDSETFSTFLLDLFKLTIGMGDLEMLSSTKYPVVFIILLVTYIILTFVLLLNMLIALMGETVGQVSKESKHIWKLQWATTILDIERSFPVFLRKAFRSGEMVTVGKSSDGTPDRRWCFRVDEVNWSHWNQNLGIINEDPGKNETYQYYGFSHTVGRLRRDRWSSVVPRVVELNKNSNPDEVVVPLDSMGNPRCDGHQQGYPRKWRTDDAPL

| SMILES | IC50 [nM] |
| --- | --- |
| CC(=O)NCc1nc(CO)sc1-c1csc(NC(=O)C2CN(c3ccc(C(F)(F)F)cc3)C2)n1 [Compound I-353] | < 100 |
| Cc1nc(C)c(-c2csc(NC(=O)[C@@H]3CC[C@H](c4ccccc4)N3C(=O)OC(C)(C)C)n2)s1 [Compound I-212] | < 100 |
| Cc1nc(C)c(-c2csc(NC(Cc3ccc(Cl)cc3)C(=O)NCc3ccccc3)n2)s1 (racemic) [II-43] | 1000 to 8000 |
| Cc1nc(CO)sc1-c1csc(NC(=O)[C@@H]2C[C@@H](c3ccccc3)CN2C(=O)C(C)(C)F)n1 [Compound I-328] | < 100 |
| N#CCc1nc(CO)sc1-c1csc(NC(=O)Cc2ccc(S(=O)(=O)C(F)(F)F)cc2)n1 [Compound I-359] | < 100 |
| O=C(Nc1nc(-c2cccs2)cs1)C1CC(F)C1 (stereo not drawn) [II-7] | 1000 to 8000 |
| Cc1nc(C)c(-c2csc(Nc3cccnc3)n2)s1 [II-40] | 100 to 1000 |
| Cc1nc(CO)sc1-c1csc(NC(=O)C2CC(OCC3CC3)C2)n1 (stereo not drawn) [Compound I-333] | 1000 to 8000 |
| O=C(Nc1nc(-c2sc(CO)nc2CO)cs1)C1CN(c2ccc(C(F)(F)F)cn2)C1 [Compound I-303] | 100 to 1000 |
| NCc1nc(CO)sc1-c1csc(NC(=O)C2CN(c3ccc(C(F)(F)F)cc3)C2)n1 [Compound I-340] | 100 to 1000 |
| Cc1nc(C)c(-c2csc(NC(=O)[C@@H]3C[C@H](c4ccccc4)CN3C(=O)OC(C)(C)C)n2)s1 [Compound I-246] | < 100 |
| Cc1nc(CO)sc1-c1csc(NC(=O)Cc2cnc(C(F)(F)F)cn2)n1 [Compound I-410] | < 100 |
| CC(=O)N1C[C@H](c2ccccc2)C[C@H]1C(=O)Nc1nc(-c2sc(C)nc2C)cs1 [Compound I-289] | 100 to 1000 |
| CCN(CC)Cc1nc(CO)sc1-c1csc(NC(=O)Cc2ccc(S(=O)(=O)C(F)(F)F)cc2)n1 [Compound I-236] | 100 to 1000 |
| O=C(Nc1nc(-c2sc(CO)nc2CO)cs1)[C@H]1C[C@H](OCc2ccccc2)C1 [Compound I-548] | 100 to 1000 |
| Cc1nc(C)c(-c2csc(NC(=O)Cc3cccc(OC(F)(F)F)c3)n2)o1 [Compound I-137] | 100 to 1000 |
| Cc1nc(C)c(-c2csc(NC(=O)Cc3cccc(NC(=O)C(C)C)c3)n2)s1 [Compound I-415] | 100 to 1000 |
| Cc1nc(CO)sc1-c1csc(NC(=O)OC(C)(C)C)n1 [Compound I-30] | 1000 to 8000 |
| Cc1nc(C)c(-c2csc(NC(=O)Cn3cc(-c4ccccc4N(C)C)cn3)n2)s1 [Compound I-169] | < 100 |
| Cc1nc(C)c(-c2csc(NC(=O)C3(C)CCN(c4ccc(C(F)(F)F)cc4)CC3)n2)s1 (racemic) [Compound I-512] | < 100 |
| Cc1nc(C)c(-c2csc(NC(=O)[C@H]3CC[C@@H](C(=O)N[C@H](c4ccccc4)C(F)(F)F)CC3)n2)s1 [Compound I-495] | 100 to 1000 |
| Cc1nc(C)c(-c2csc(NC(=O)CN3CCC(c4ccccc4)C3)n2)s1 (stereo not drawn) [Compound I-155] | 100 to 1000 |
| NC(=O)c1nc(CO)c(-c2csc(NC(=O)Cc3ccc(S(=O)(=O)C(F)(F)F)cc3)n2)s1 [Compound I-255] | 1000 to 8000 |
| COc1cc(CC(=O)Nc2nc(-c3sc(C)nc3C)cs2)cc(C(=O)Nc2ccc(Cl)cc2F)c1 [Compound I-526] | < 100 |
| Cc1nc(C)c(-c2csc(NC(=O)[C@H]3C[C@H](N(C)Cc4ccc(C(F)(F)F)cc4)C3)n2)s1 [Compound I-368] | < 100 |

| SMILES | IC50 [nM] |
| --- | --- |
| CO[C@H]1C[C@H](C(=O)Nc2nc(-c3sc(C)nc3C)cs2)C1 [Compound I-268] | 100 to 1000 |
| Cc1nc(C)c(-c2csc(NC(=O)Cc3cc(O)cc(C(=O)N[C@H](c4ccccc4)C(F)(F)F)c3)n2)s1 [Compound I-511] | 1000 to 8000 |
| Cc1nc(CO)sc1-c1csc(NC(=O)CC2CCN(c3ncc(C(F)(F)F)cn3)CC2)n1 [Compound I-449] | < 100 |
| Cc1nc(CC(N)=O)sc1-c1csc(NC(=O)Cc2ccc(S(=O)(=O)C(F)(F)F)cc2)n1 [Compound I-411] | 100 to 1000 |
| Cc1nc(COC(N)=O)c(-c2csc(NC(=O)Cc3ccc(S(=O)(=O)C(F)(F)F)cc3)n2)s1 [Compound I-468] | < 100 |
| Cc1nc(C)c(-c2csc(NC(=O)Cn3cc(-c4ccccc4)nn3)n2)s1 [Compound I-191] | < 100 |
| CCNC(=O)N1C[C@H](c2ccccc2)C[C@H]1C(=O)Nc1nc(-c2sc(C)nc2C)cs1 [Compound I-300] | 1000 to 8000 |
| Cc1nc(C)c(-c2csc(NC(=O)c3cccc(-c4ccccc4)n3)n2)s1 [Compound I-296] | 1000 to 8000 |
| Cc1nc(C)c(-c2csc(NC(=O)Cn3cc(Br)cn3)n2)s1 [Compound I-132] | < 100 |
| Cc1nc(CO)sc1-c1csc(NC(=O)C2CN(S(=O)(=O)C(F)(F)F)C2)n1 [Compound I-403] | 100 to 1000 |
| Cc1nc(CO)sc1-c1csc(NC(=O)C2CCN(CC(F)(F)F)C2)n1 (stereo not drawn) [Compound I-213] | 100 to 1000 |
| COc1ccc(N(C)S(=O)(=O)c2ccc(CC(=O)Nc3nc(-c4sc(C)nc4C)cs3)cc2)cc1 [Compound I-158] | < 100 |
| O=C(Nc1nc(-c2sc(CO)nc2CO)cs1)[C@H]1C[C@@H](OCc2ccccc2)C1 [Compound I-549] | 1000 to 8000 |
| Cc1nc(CO)c(-c2csc(NC(=O)Cc3ccc(S(=O)(=O)C(F)(F)F)cc3)n2)s1 [Compound I-456] | < 100 |
| Cc1nc(C)c(-c2csc(NC(=O)[C@@H]3CCCN3C(=O)OC(C)(C)C)n2)s1 [Compound I-249] | 100 to 1000 |
| Cc1nc(C)c(-c2csc(NC(=O)[C@@H]3C[C@H](Oc4ccc(Cl)cc4)CN3C(=O)OC(C)(C)C)n2)s1 [Compound I-293] | < 100 |
| Cc1nc(CO)sc1-c1csc(NC(=O)C2CCN(c3ccc(Cl)cc3)C2)n1 (stereo not drawn) [Compound I-204] | < 100 |
| Cc1nc(C(=O)NC#N)sc1-c1csc(NC(=O)Cc2c(F)cccc2F)n1 [Compound I-108] | 1000 to 8000 |
| Cc1nc(C)c(-c2csc(NC(=O)Cc3cccc(CN(C)C)c3)n2)s1 [Compound I-101] | 1000 to 8000 |
| Cc1nc(C)c(-c2csc(NC(=O)C3CN(Cc4ccccc4C(F)(F)F)C3)n2)s1 [Compound I-260] | < 100 |
| Cc1nc(C)c(-c2csc(NC(=O)Cc3cccc(S(=O)(=O)NCC(F)(F)F)c3)n2)s1 [Compound I-502] | < 100 |
| O=C(Nc1nc(-c2sc(CO)nc2CO)cs1)C1CC(Oc2ccc(C(F)(F)F)cc2)C1 (stereo not drawn) [Compound I-330] | < 100 |
| O=C(Nc1nc(-c2sc(CO)nc2CO)cs1)[C@@H]1C[C@@H](c2ccccc2)CN1C(=O)OCC(F)(F)F [Compound I-336] | 100 to 1000 |
| Cc1nc(C)c(-c2csc(NC(=O)Cn3cc(-c4ccc(S(C)(=O)=O)cc4)cn3)n2)s1 [Compound I-151] | 100 to 1000 |
| Cc1nc(CO)sc1-c1csc(NC(=O)C2CN(C(=O)OC(C)(C)C(F)(F)F)C2)n1 [Compound I-329] | < 100 |

| SMILES | IC50 [nM] |
| --- | --- |
| Cc1nc(C)c(-c2csc(NC(=O)OC3CN(c4ncc(C(F)(F)F)cn4)C3)n2)s1 [Compound I-386] | 1000 to 8000 |
| Cc1nc(CO)sc1-c1csc(NC(=O)C2Oc3cc(Cl)c(Cl)cc3O2)n1 [Compound I-273] | < 100 |
| Cc1nc(C)c(-c2csc(NC(=O)[C@@H]3C[C@@H](N4CCCCC4)CN3C(=O)OC(C)(C)C)n2)s1 [Compound I-275] | 1000 to 8000 |
| Cc1nc(C)c(-c2csc(NC(=O)C3CN(CC(F)(F)F)C3)n2)s1 [Compound I-281] | 100 to 1000 |
| CC(C)(F)C(=O)N1C[C@H](c2ccccc2)C[C@H]1C(=O)Nc1nc(-c2sc(CO)nc2CO)cs1 [Compound I-349] | 100 to 1000 |
| Cc1nc(CO)sc1-c1csc(NC(=O)C2C[C@H](C(F)(F)F)CN2C(=O)OC(C)(C)C)n1 (stereo partly drawn) [Compound I-448] | < 100 |
| Cc1nc(C(C)O)sc1-c1csc(NC(=O)[C@@H]2C[C@@H](c3ccccc3)CN2C(=O)C(F)(F)F)n1 (stereo partly drawn) [Compound I-476] | < 100 |
| Cc1nc(C)c(-c2csc(NC(=O)Cc3cccc(S(C)(=O)=O)c3)n2)s1 [Compound I-79] | 100 to 1000 |
| Cc1nc(C)c(-c2csc(NC(=O)Cc3ccccc3[N+](=O)[O-])n2)s1 [Compound I-541] | < 100 |
| Cc1nc(C)c(-c2csc(NC(Cc3ccc(Cl)cc3)C(=O)NC3CCOCC3)n2)s1 (racemic) [II-46] | 1000 to 8000 |
| CC(O)c1nc(CO)c(-c2csc(NC(=O)Cc3ccc(S(=O)(=O)C(F)(F)F)cc3)n2)s1 (racemic) [Compound I-500] | 100 to 1000 |
| Cc1nc(CO)c(-c2csc(NCCc3c(F)cccc3F)n2)s1 [II-3] | 100 to 1000 |
| NC(=O)c1nc(CO)c(-c2csc(NC(=O)C3CN(Cc4cccc(C(F)(F)F)c4)C3)n2)s1 [Compound I-324] | 100 to 1000 |
| Cc1nc(CO)sc1-c1csc(NC(=O)NCc2ccc(Cl)cc2)n1 [Compound I-442] | 100 to 1000 |
| Cc1nc(C)c(-c2csc(NC(=O)Cn3cc(-c4ccccc4Cl)cn3)n2)s1 [Compound I-145] | < 100 |
| Cc1nc(OCCOCc2ccccc2)sc1-c1csc(NC(=O)Cc2ccc(S(=O)(=O)C(F)(F)F)cc2)n1 [Compound I-446] | 1000 to 8000 |
| NC(=O)c1nc(CO)c(-c2csc(NC(=O)C3CN(Cc4ccccc4C(F)(F)F)C3)n2)s1 [Compound I-322] | 100 to 1000 |
| O=C(Cc1ccc(S(=O)(=O)C(F)(F)F)cc1)Nc1nc(-c2sc(CO)nc2CCC(=O)N2CCOCC2)cs1 [Compound I-363] | 100 to 1000 |
| Cc1nc(C)c(-c2nc(NC(=O)Cc3c(F)cccc3F)sc2-c2cccnc2)s1 [Compound I-63] | 1000 to 8000 |
| Cc1nc(C)c(-c2csc(NC(=O)[C@@H]3C[C@@H](c4ccccc4)CN3C(=O)OC(C)(C)C)n2)s1 [Compound I-210] | < 100 |
| Cc1nc(C)c(-c2csc(NC(=O)C3CN(c4ccccc4C(F)(F)F)C3)n2)s1 [Compound I-280] | < 100 |
| Cc1nc(C)c(-c2csc(NC(=O)Cn3cc(-c4ccccc4S(C)(=O)=O)cn3)n2)s1 [Compound I-166] | 100 to 1000 |
| COc1cc(CC(=O)Nc2nc(-c3sc(C)nc3C)cs2)cc(C(=O)NC(c2ccccc2)C(F)(F)F)c1 (stereo not drawn) [Compound I-504] | < 100 |
| Cc1nc(C)c(-c2nc(NC(=O)Cc3c(F)cccc3F)sc2-c2ccccc2O)s1 [Compound I-64] | 100 to 1000 |
| Cc1nc(C)c(-c2nc(NC(=O)Cc3c(F)cccc3F)sc2C2=CCCCC2)s1 [Compound I-537] | 1000 to 8000 |
